Where two headings read alike, the source gives them in different places.
Assays:
Plasma Cortisol = test: Feedlot steers: plasma cortisol; assay type: in vivo, steers (cattle); conditions: 150 days
Description: Seventy-two medium-frame steers, with an average weight of 578 lbs., were allotted to 12 pens of 6 animals each. A common basal diet was fed ad libitum to all cattle. This consisted of 48.9% cracked corn, 24.4% ground corn cobs, 17.8% expeller Soybean meal, 7.0% molasses (liquid), 1.3% limestone, 0.25% dicalcium phosphate, 2% salt, 0.02% trace mineral premix, and 0.1% vitamin A premix for the first 58 days of the experiment, and was changed to 54.3% cracked corn and 12.8% expeller soybean meal for the remaining 103 days of the experiment. Three pens were assigned to each treatment. The treatments consisted of four levels of Ca-KIC in a pelleted supplement: 0%, 0.02%, 0.07%, and 0.20% of the basal diet (0.05% control pellets, 0.04% KIC pellets, 0.14% KIC pellets, and 0.40% KIC pellets). The pellets were preweighted and top-dressed on the basal diet twice daily. After 58 days, the cattle on the 0.20% KIC were removed from the experiment. The cattle were not implanted with a growth promotant nor were ionophores included in the diet. […] Loin eye area and fat thickness over the loin were measured on each carcass. […]
KIC was obtained from SOBAC, Paris, France. Zein was purchased from Freeman Industries, Tuckahoe, N.Y. Each experiment was statistically analyzed by analysis of variance with three pens per treatment. […]

[1] = Rumen degradation of KIC (nylon bag technique); set-up: species or system ruminants (rumen)
Description: (§1) KIC pellets were made by mixing zein, ethanol, KIC, limestone, bentonite, and water in a ratio of […]. This mixture was extruded through a die of 15 mm directly into a vat of liquid nitrogen. The shattered pellets were spread out and allowed to air-dry for 2 days. The pellets were coated with zein (2% w/w) by spraying with a 30% zein solution made in 80% ethanol. The pellets again were air-dryed. Control pellets were made similarly to the KIC pellets except that the mixture was zein, limestone, ethanol, bentonite, and water in a ratio of 12:12:7.5:2.7:1. When KIC pellets were placed in the rumen (nylon bag technique), […] of the KIC added was present in the bags after 24 hr of rumen fermentation. It was estimated that uncoated KIC was 95% degraded in the rumen.
Therefore, an attempt was made to protect KIC from ruminal degradation. KIC pellets, resistant to rumen degradation, were made by mixing zein, ethanol, KIC, limestone, bentonite and water in a ratio of 8.3:7.4:5.2:3:2:1. This mixture was extruded through a die of 15 mm directly into a vat of liquid nitrogen. The shattered pellets were spread out and allowed to air-dry for two days. The dried pellets were coated with zein (2% w/w) by spraying with a 30% zein solution made in 80% ethanol. The pellets again were air-dried. Control pellets were made similar to the KIC pellets except that the mixture was zein, limestone, ethanol, bentonite and water in a ratio of 12:12:7.5:2.7:1. When KIC pellets were placed in the rumen (nylon bag technique), 45% of the KIC added was present in the bags after 36 hr of rumen digestion.

white blood cells = test: White blood cell number and differential, cattle (experiment 3); assay type: in vivo, castrated male cattle
Protocol: In experiment 3 72 castrated male cattle were allotted to 12 pens of 6 animals each. Three pens were assigned to each treatment: 0.0% KIC, 0.02% KIC, 0.07% KIC, and 0.20% KIC. Animals were fed ad libitum the respective diets for 6 weeks. At the end of the 6-233k periods, 100-ml blood samples were collected from each animal, and lymphocyte and neutrophil function were evaluated.
The basal cattle diet (experiment 3) consisted of 49% corn, 24% corn-cobs, 18% soybean meal, 7% molasses, 1.3% limestone, 0.25% dicalcium phosphate, 0.23% salt, 0.02% trace-mineral premix, and 0.11% vitamin premix. The basal diet was supplemented with w/w 0.05% control pellets, 0.04% KIC pellets, or 0.4% KIC pellets. All animals consumed ~10 kg of feed per day, resulting in ~0, 2, 7, or 20 g of Ca-KIC consumed per animal per day or 0, 0.02, 0.07, and 0.2% KIC of the total diet.
as §1
Blood was collected by jugular venapuncture into acid-citrate-dextrose anticoagulant. Lymphocytes and neutrophils were isolated, and lymphocyte blastogenesis and neutrophil function evaluated. KIC was obtained from SOBAC, Paris, France. Zein was purchased from Freeman Industries, Tuckahoe, NY. Each experiment was statistically analyzed by analysis of variance. In sheep experiments, individual animals were the experimental units, whereas pen means were analyzed in the cattle experiment.
^2 Total white blood cell number (WBC) is the cells per mm^3.

lymphocytes = test: Study of Immune Function: lymphocyte blastogenesis, cattle (experiment 3); assay type: cell-based, castrated male cattle

## CC(C)CC(=O)C(=O)O [KIC, alpha-ketoisocaproate]
Plasma Cortisol; .02% dietary KIC (0%: 4.08)
  Plasma Cortisol: 3.74 µg/dL
Plasma Cortisol; .07% dietary KIC (0%: 4.08)
  Plasma Cortisol: 3.2 µg/dL
[1]; "as much as", unprotected, read-out: KIC that may be lost by rumen destruction
  degraded: 90 to 95%
[1]; estimated, Example IV, read-out: uncoated KIC degraded in the rumen
  degraded: 95%
[1]; preliminary experiments, Example VI, read-out: uncoated KIC degraded in the rumen
  degraded: 95%
White blood cells; Exp. 3, oral coated 0.02% KIC (control 28)
  % SEG: 29% of Total WBC
White blood cells; Exp. 3, oral coated 0.02% KIC (control 52)
  % LYM: 63% of Total WBC
White blood cells; Exp. 3, oral coated 0.02% KIC (control .7)
  % EOS: .9% of Total WBC
White blood cells; Exp. 3, oral coated 0.07% KIC (control 28)
  % SEG: 24% of Total WBC
White blood cells; Exp. 3, oral coated 0.07% KIC (control 52)
  % LYM: 69% of Total WBC
White blood cells; Exp. 3, oral coated 0.07% KIC (control .7)
  % EOS: .7% of Total WBC
White blood cells; Exp. 3, oral coated 0.20% KIC (control 28)
  % SEG: 24% of Total WBC
White blood cells; Exp. 3, oral coated 0.20% KIC (control 52)
  % LYM: 52% of Total WBC
White blood cells; Exp. 3, oral coated 0.20% KIC (control .7)
  % EOS: 1.1% of Total WBC
lymphocytes; Exp. 3, oral coated 0.02% KIC (control 1410)
  BKG: background blastogenesis: 1550 Counts/min per 2 × 10^5 cells
lymphocytes; Exp. 3, oral coated 0.02% KIC (control 23100)
  PWM: pokeweed mitogen-stimulated blastogenesis: 27100 Counts/min per 2 × 10^5 cells
lymphocytes; Exp. 3, oral coated 0.02% KIC (control 40500)
  PHA: phytohemagglutinin-stimulated blastogenesis: 43200 Counts/min per 2 × 10^5 cells
lymphocytes; Exp. 3, oral coated 0.02% KIC (control 40900)
  ConA: concanavalin A-stimulated blastogenesis: 48800 Counts/min per 2 × 10^5 cells
lymphocytes; Exp. 3, oral coated 0.07% KIC (control 1410)
  BKG: background blastogenesis: 2080 Counts/min per 2 × 10^5 cells
lymphocytes; Exp. 3, oral coated 0.07% KIC (control 23100)
  PWM: pokeweed mitogen-stimulated blastogenesis: 38000 Counts/min per 2 × 10^5 cells
lymphocytes; Exp. 3, oral coated 0.07% KIC (control 40500)
  PHA: phytohemagglutinin-stimulated blastogenesis: 74300 Counts/min per 2 × 10^5 cells
lymphocytes; Exp. 3, oral coated 0.07% KIC (control 40900)
  ConA: concanavalin A-stimulated blastogenesis: 75400 Counts/min per 2 × 10^5 cells
lymphocytes; Exp. 3, oral coated 0.20% KIC (control 1410)
  BKG: background blastogenesis: 1690 Counts/min per 2 × 10^5 cells
lymphocytes; Exp. 3, oral coated 0.20% KIC (control 23100)
  PWM: pokeweed mitogen-stimulated blastogenesis: 30500 Counts/min per 2 × 10^5 cells
lymphocytes; Exp. 3, oral coated 0.20% KIC (control 40500)
  PHA: phytohemagglutinin-stimulated blastogenesis: 56900 Counts/min per 2 × 10^5 cells
lymphocytes; Exp. 3, oral coated 0.20% KIC (control 40900)
  ConA: concanavalin A-stimulated blastogenesis: 54400 Counts/min per 2 × 10^5 cells

— patent US4835185A, “Immunomodulator for improving commercial performance of domestic animals” (Iowa State University Research Foundation, Inc., priority 1987, dated 1989)
